Reference: US8062995B2, “Dioxazine-substituted arylamides” (Bayer CropScience AG, priority 2005, dated 2011)

Assays:
Heliothis virescens = Heliothis virescens test (eggs); type: in vivo; conditions: for Kill rate after 6-7d in %: 300 ppm, eggs
Protocol: (§1) Heliothis virescens Solvents: 1% of N-methylpyrrolidone (NMP) • 1% of diacetone alcohol Dye: brilliant sulphoflavin for staining the water To produce a suitable preparation of active compound, the active compound is mixed with the stated amounts of solvents and the concentrate is diluted with stained water to the desired concentration. The eggs (Heliothis virescens) are treated with an active compound preparation of the desired concentration. After the desired period of time, the activity in % is determined. 100% means that all animals have been killed; 0% means that none of the animals have been killed.

[1] = logP determination by HPLC (reversed-phase C18), EEC Directive 79/831 Annex V.A8; type: physicochemical; conditions: HPLC reversed-phase C18, 43° C., acidic range pH 2.7
Protocol: The logP values given in the tables and Preparation Examples above are determined in accordance with EEC Directive 79/831 Annex V.A8 by HPLC (High Performance Liquid Chromatography) on a reversed-phase column (C 18). Temperature: 43° C. The determination by LC-MS in the acidic range is carried out at pH 2.7 using 0.1% aqueous formic acid and acetonitrile (contains 0.1% formic acid) as mobile phases; linear gradient from 10% acetonitrile to 95% acetonitrile. Calibration is carried out using unbranched alkan-2-ones (having 3 to 16 carbon atoms) with known logP values (determination of the logP values by the retention times using linear interpolation between two successive alkanones).

Myzus persicae = Myzus persicae test (ingestion of active compound preparation); type: in vivo; conditions: for Kill rate after 6-7d in %: 30 ppm, ingestion
Protocol: Myzus persicae Test Solvents: 1% of N-methylpyrrolidone (NMP) • 1% of diacetone alcohol Dye: brilliant sulphoflavin for staining the water To produce a suitable preparation of active compound, the active compound is mixed with the stated amounts of solvents and the concentrate is diluted with stained water to the desired concentration. The Myzus persicae are provided with an active compound preparation of the desired concentration for ingestion. After the desired period of time, the activity in % is determined. 100% means that all aphids have been killed; 0% means that none of the aphids have been killed.

[2] = tested on: caterpillars of the army worm (Spodoptera frugiperda); assay: Spodoptera frugiperda test (SPODFR spray treatment); type: in vivo; conditions: for Kill rate after 7d in %: 100 g/ha, spray treatment
Protocol: Spodoptera frugiperda Test (SPODFR Spray Treatment) Solvents: 78 parts by weight of acetone • • 1.5 parts by weight of dimethylformamide Emulsifier: 0.5 part by weight of alkylaryl polyglycol ether To produce a suitable preparation of active compound, 1 part by weight of active compound is mixed with the stated amounts of solvents and emulsifier and the concentrate is diluted with emulsifier-containing water to the desired concentration. Discs of maize leaves (Zea mays) are sprayed with an active compound preparation of the desired concentration and after drying populated with caterpillars of the army worm (Spodoptera frugiperda). After the desired period of time, the activity in % is determined. 100% means that all of the caterpillars have been killed; 0% means that none of the caterpillars have been killed.

[3] = tested on: Spodoptera frugiperda larvae; assay: Spodoptera frugiperda test (treatment by watering); type: in vivo; conditions: for Kill rate after 14d in %: 20 ppm, treatment by watering
Protocol: Spodoptera frugiperda Test Solvent: 7 parts by weight of dimethylformamide Emulsifier: 2 parts by weight of alkylaryl polyglycol ether To produce a suitable preparation of active compound, 1 part by weight of active compound is mixed with the stated amounts of solvent and emulsifier and the concentrate is diluted with water to the desired concentration. Maize plants (Zea mays) are watered with an active compound preparation of the desired concentration and infected with Spodoptera frugiperda larvae. After the desired period of time, the kill in % is determined. 100% means that all larvae have been killed; 0% means that none of the larvae have been killed.

[4] = tested on: larvae of the mustard beetle (Phaedon cochleariae); assay: Phaedon test (sprayed Chinese cabbage discs); type: in vivo; conditions: for Kill rate after 7d in %: 100 g/ha
Protocol: (§2) Phaedon Test Solvents: 78 parts by weight of acetone • • 1.5 parts by weight of dimethylformamide Emulsifier: 0.5 part by weight of alkylaryl polyglycol ether To produce a suitable preparation of active compound, 1 part by weight of active compound is mixed with the stated amounts of solvents and emulsifier and the concentrate is diluted with emulsifier-containing water to the desired concentration. Discs of Chinese cabbage (Brassica pekinensis) are sprayed with an active compound preparation of the desired concentration and, after drying, populated with larvae of the mustard beetle (Phaedon cochleariae). After the desired period of time, the activity in % is determined. 100% means that all beetle larvae have been killed; 0% means that none of the beetle larvae have been killed.

[5] = tested on: Diabrotica undecimpunctata; assay: Diabrotica undecimpunctata (DIABUN) test (eggs); type: in vivo
Protocol: as §1, with “Diabrotica undecimpunctata (DIABUN)” for “Heliothis virescens”, “(Diabrotica undecimpunctata)” for “(Heliothis virescens)”

[6] = tested on: caterpillars of the cotton bollworm (Heliothis armigera); assay: Heliothis armigera test (leaf dip); type: in vivo; conditions: for Kill rate after 7d in %: 20 ppm
Protocol: (§3) Heliothis armigera Test Solvent: 7 parts by weight of dimethylformamide Emulsifier: 2 parts by weight of alkylaryl polyglycol ether To produce a suitable preparation of active compound, 1 part by weight of active compound is mixed with the stated amounts of solvent and emulsifier and the concentrate is diluted with emulsifier-containing water to the desired concentration. Soya bean leaves (Glycine max.) are treated by being dipped into the active compound preparation of the desired concentration and populated with caterpillars of the cotton bollworm (Heliothis armigera) while the leaves are still moist. After the desired period of time, the kill in % is determined. 100% means that all caterpillars have been killed; 0% means that none of the caterpillars have been killed.

[7] = tested on: green peach aphid (Myzus persicae); assay: Myzus test (MYZUPE spray treatment); type: in vivo; conditions: for Kill rate after 5d in %: 100 g/ha, spray treatment
Protocol: as §2, with “Myzus” for “Phaedon”, “Test (MYZUPE Spray Treatment)” for “Test”, “pekinensis), which are infested by all stages of the green peach aphid (Myzus persicae)” for “pekinensis)”, “concentration.” for “concentration and, after drying, populated with larvae of the mustard beetle (Phaedon cochleariae).”, “aphids” for “beetle larvae”

[8] = tested on: green peach aphid (Myzus persicae); assay: Myzus test; oral; type: in vivo
Protocol: Myzus Test; Oral Solvent: 80 parts by weight of acetone To produce a suitable preparation of active compound, 1 part by weight of active compound is mixed with the stated amounts of solvent and the concentrate is diluted with water to the desired concentration. Vessels are populated with all stages of the green peach aphid (Myzus persicae) which are treated by sucking the active compound preparation of the desired concentration. After the desired period of time, the activity in % is determined. 100% means that all aphids have been killed; 0% means that none of the aphids have been killed.

[9] = tested on: green peach aphid (Myzus persicae); assay: Myzus persicae test; systemic treatment; type: in vivo; conditions: for Kill rate after 6d in %: 20 ppm, systemic treatment
Protocol: Myzus persicae Test; Systemic Treatment Solvent: 7 parts by weight of dimethylformamide Emulsifier: 2 parts by weight of alkylaryl polyglycol ether To produce a suitable preparation of active compound, 1 part by weight of active compound is mixed with the stated amounts of solvent and emulsifier and the concentrate is diluted with water to the desired concentration. The active compound preparation is mixed with water. The stated concentration refers to the amount of active compound per volume unit of water (mg/l=ppm). The treated water is filled into vessels with a pea plant (Pisum sativum) which is then infected with the green peach aphid (Myzus persicae). After the desired period of time, the kill in % is determined. 100% means that all aphids have been killed; 0% means that none of the aphids have been killed.

[10] = tested on: caterpillars of the diamondback moth (Plutella xylostella); assay: Plutella test (leaf dip); type: in vivo
Protocol: as §3, with “Plutella” for “Heliothis armigera”, “Cabbages” for “Soya bean”, “(Brassica oleracea)” for “(Glycine max.)”, “diamondback moth (Plutella xylostella)” for “cotton bollworm (Heliothis armigera)”

[11] = tested on: caterpillars of the army worm (Spodoptera exigua); assay: Spodoptera exigua test (leaf dip); type: in vivo
Protocol: as §3, with “Spodoptera exigua” for “Heliothis armigera”, “Cabbage” for “Soya bean”, “(Brassica oleracea)” for “(Glycine max.)”, “army worm (Spodoptera exigua)” for “cotton bollworm (Heliothis armigera)”

[12] = tested on: Spodoptera exigua, resistant strain; assay: Spodoptera exigua test; resistant strain; type: in vivo
Protocol: Spodoptera exigua Test; Resistant Strain
Solvent: 7 parts by weight of dimethylformamide
Emulsifier: 2 parts by weight of alkylaryl polyglycol ether
To produce a suitable preparation of active compound, 1 part by weight of active compound is mixed with the stated amounts of solvent and emulsifier and the concentrate is diluted with emulsifier-containing water to the desired concentration.
Cabbage leaves (Brassica oleracea) are treated by being dipped into the active compound preparation of the desired concentration and populated with caterpillars of the army worm (Spodoptera exigua, resistant strain) while the leaves are still moist.
After the desired period of time, the kill in % is determined. 100% means that all caterpillars have been killed; 0% means that none of the caterpillars have been killed.

Row | logP [1] | SMILES | activity in the Heliothis virescens test (in words) (Heliothis virescens) | Kill rate after 6-7d in % (Heliothis virescens) [%] | activity in the Myzus persicae test (in words) (Myzus persicae) | Kill rate after 6-7d in % (Myzus persicae) [%] | activity in the Spodoptera frugiperda test, spray treatment (in words) [2] | Kill rate after 7d in % [2] [%] | Kill rate after 14d in % [3] [%] | activity in the Phaedon test (in words) [4] | Kill rate after 7d in % [4] [%] | activity in the Heliothis armigera test (in words) [6] | Kill rate after 7d in % [6] [%] | activity in the Myzus test, spray treatment (in words) [7] | Kill rate after 5d in % [7] [%] | activity in the Myzus persicae test, systemic treatment (in words) [9] | Kill rate after 6d in % [9] [%] | activity in the Plutella test (in words) [10] | activity in the Spodoptera exigua test (in words) [11] | further results
1 | 2.54 | Cc1cccc(C2=NOCCO2)c1NC(=O)c1cc(Cl)nn1-c1ncccc1Cl [Example I-1-7] | good activity | 100 | good activity | 100 | good activity | 100 |  |  |  |  |  |  |  |  |  |  |  | 
2 | 3.08 | Cc1cc(Cl)cc(C2=NOCCO2)c1NC(=O)c1cc(Cl)nn1-c1ncccc1Cl [Example I-1-9] | good activity | 100 | good activity | 100 | good activity | 100 | 95 | good activity | 100 | good activity | 80 |  |  |  |  |  |  | activity in the Spodoptera frugiperda test, watering (in words) [3]: good activity; activity in the Diabrotica undecimpunctata test (in words) [5]: good activity; Kill rate after 2-5d in % ([5]; 300 ppm, 2-5 d, eggs): 100%
3 | 1.98 | Cc1cccc(C2=NOCCN2)c1NC(=O)c1cc(C(F)(F)F)nn1-c1ncccc1Cl [Example I-1-16] |  |  |  |  | good activity | 100 |  | good activity | 100 | good activity | 100 | good activity | 100 | good activity | 100 | good activity | good activity | activity in the Myzus test, oral (in words) [8]: good activity; Kill rate after 5d in % ([8]; 100 ppm, 5 d, oral): 100%; Kill rate after 7d in % ([10]; 100 ppm): 100%; Kill rate after 7d in % ([11]; 20 ppm): 100%
4 | 2.70 | Cc1cc(Cl)cc(C2=NOCCN2)c1NC(=O)c1cc(C(F)(F)F)nn1-c1ncccc1Cl [Example I-1-18] |  |  |  |  | good activity | 100 | 95 | good activity | 100 | good activity | 100 | good activity | 100 | good activity | 95 | good activity | good activity | Kill rate after 7d in % ([10]; 20 ppm): 100%; Kill rate after 7d in % ([11]; 100 ppm): 100%; activity in the Spodoptera exigua test, resistant strain (in words) [12]: good activity; Kill rate after 7d in % ([12]; 100 ppm, 7 d, resistant strain): 100%
